# Laboratory results as given in patent US6458846B1, “Ion channel modulating agents” (Neurosearch A/S, priority 1998, dated 2002).
# Structures can show the parent of a compound that is named as a salt.
row,melting point [°C],Structure (SMILES)
1,64 to 69,"ON=Cc1ccc(Cl)c(Cl)c1OCc1ccccc1 (as salt: HCl) [Compound 1e, O-Benzyl 2-formyl-5,6-dichlorophenol oxime]"
2,82 to 83,"COc1c(C=NO)ccc(Cl)c1Cl (as salt: HCl) [Compound 1f, O-Methyl 2-formyl-5,6-dichlorophenol oxime]"
3,99 to 100,"CC(=O)c1ccccc1NC(C)=NO [Compound 1i, N-(2-acetylphenyl)acetamide oxime]"
